# Structures can show the parent of a compound that is named as a salt. Where two headings read alike, the source gives them in different places.
# What was measured:
# Format in all cases: cell-based
# [1] = tested on: gdg6-A8 riboswitch; assay: Luciferase reporter assay, gdg6-A8 riboswitch, transfected HEK 293 cells; conditions: for fold induction at 100 µM: Homo sapiens, HEK293
# From the text: (§1) Riboswitches were constructed as described in PCT/US2016/016234 (in particular Examples 3 to 6), incorporated herein by reference. A truncated human beta-globin intron sequence was synthesized and inserted in the coding sequence of a firefly luciferase gene. A mutant human DHFR exon 2 was synthesized and inserted in the middle of this truncated beta-globin intron sequence using Golden gate cloning strategy. Aptamers including xpt-G/A^1, ydhl-G/A^2, yxj^3, add^4, gdg6-G/A^5 (citations for the aptamers are incorporated herein by reference) were synthesized as oligonucleotides (“oligos”) with 4 nucleotide overhang at the 5′ end that are complementary to two different BsaI sites individually (IDT), annealed and ligated to BsaI-digested mDHFR-Luci-acceptor vector.
# (§2) 3.5×10^4 HEK 293 cells were plated in a 96-well flat bottom plate the day before transfection. Plasmid DNA (500 ng) was added to a tube or a 96-well U-bottom plate. Separately, TransIT-293 reagent (Mirus; 1.4 μL) was added to 50 μL Opti-mem I media (Life Technologies), and allowed to sit for 5 minutes at room temperature (RT). Then, 50 μL of this diluted transfection reagent was added to the DNA, mixed, and incubated at RT for 20 min. Finally, 7 μL of this solution was added to a well of cells in the 96-well plate.
# (§3) 24 hours after media change, plates were removed from the incubator, and equilibrated to RT for several minutes on a lab bench, then aspirated. Glo-lysis buffer (Promega, 100 μL, RT) was added, and the plates maintained at RT for at least 5 minutes. Then, the well contents were mixed by 50 μL trituration, and 20 μL of each sample was mixed with 20 μL of bright-glo reagent (Promega) that had been diluted to 10% in glo-lysis buffer. 96 wells were spaced on an opaque white 384-well plate. Following a 5 min incubation at RT, luminescence was measured using a Tecan machine with 500 mSec read time. The luciferase activity was expressed as mean relative light unit (RLU)±S.D., and fold induction was calculated as the luciferase activity obtained with guanine treatment divided by luciferase activity obtained without guanine treatment.
# [2] = tested on: add-G6 riboswitch; assay: cells; conditions: for fold induction at 100 µM: Homo sapiens
# From the text: (§4) A truncated human beta-globin intron sequence was synthesized and inserted in the coding sequence of a firefly luciferase gene. A mutant human DHFR exon 2 was synthesized and inserted in the middle of this truncated beta-globin intron sequence using Golden gate cloning strategy. Aptamers including xpt-G/A^1, ydhl-G/A^2, yxj^3, add^4, gdg6-G/A^5 (citations for the aptamers are incorporated herein by reference) were synthesized as oligonucleotides (“oligos”) with 4 nucleotide overhang at the 5′ end that are complementary to two different BsaI sites individually (IDT), annealed and ligated to BsaI-digested mDHFR-Luci-acceptor vector.
# as §2, with “Separately, TransIT-293 reagent (Mirus; 1.4 μL) was added to 50 μL Opti-mem I media (Life Technologies), and allowed to sit for 5 minutes at room temperature (RT).” left out
# as §3, with “The luciferase activity was expressed as mean relative light unit (RLU)±S.D., and fold induction was calculated as the luciferase activity obtained with guanine treatment divided by luciferase activity obtained without guanine treatment.” left out
# [3] = tested on: xpt-G17 riboswitch; assay: Luciferase reporter assay, xpt-G17 riboswitch, transfected HEK 293 cells; conditions: for fold induction at 100 µM: HEK293, xpt-G17 riboswitch; for response of guanine riboswitch xpt-G17 to compound (FIG. 1e): Prestwick library at 100 μM
# From the text: as §4, §2, §3
# [4] = tested on: ydhl-G8 riboswitch; assay: Luciferase reporter assay, ydhl-G8 riboswitch, transfected HEK 293 cells; conditions: for fold induction at 100 µM: Homo sapiens
# From the text: as §4
# as §2, with “Separately, TransIT-293 reagent (Mirus; 1.4 μL) was added to 50 μL Opti-mem I media (Life Technologies), and allowed to sit for 5 minutes at room temperature (RT).” left out
# as §3
# [5] = tested on: gdg6-G8 riboswitch; assay: Luciferase reporter assay, gdg6-G8 riboswitch, transfected HEK 293 cells; conditions: gdg6-G8 riboswitch, Prestwick library compounds at 100 μM, HEK 293; for fold induction at 100 µM: Homo sapiens, HEK293
# From the text: as §1, §2, §3
# [6] = add-G6 riboswitch, Prestwick library compounds at 100 μM, HEK 293
# [7] = HEK293, add-G6 riboswitch, Prestwick library compounds at 100 μM, HEK 293, read-out: Fold Induction of luciferase activity
# [8] = Homo sapiens, Prestwick library compounds at 100 μM, HEK 293, preliminary screen
# [9] = HEK293, read-out: Fold Induction of luciferase activity
# [10] = gdg6-A8 riboswitch, Prestwick library compounds at 100 μM, HEK 293
compound,measurement,setting,value
Methotrimeprazine maleate salt,Fold Induction of luciferase activity,[1]; 100 µM,5.0 fold
Avermectin B1,Fold Induction of luciferase activity,[2]; [6],11.8 fold
NC(=O)c1ccc[n+]([C@@H]2O[C@H](COP(=O)([O-])OP(=O)(O)OC[C@H]3O[C@@H](n4cnc5c(N)ncnc54)[C@H](O)[C@@H]3O)[C@@H](O)[C@H]2O)c1 [Nadide],fold induction at 100 µM,[2]; [7],30.8
same,fold induction at 100 µM,[3]; [8],~40
same,response of guanine riboswitch xpt-G17 to compound (FIG. 1e),[3]; preliminary screen,responded
same,Fold Induction of luciferase activity,"[3]; xpt-G17 riboswitch, Prestwick library compounds at 100 μM, HEK 293, preliminary screen, 100 µM",40.9 fold
same,fold induction at 100 µM,[4]; [9],11.7
CC(=O)O[C@]1(C(C)=O)CC[C@H]2[C@@H]3C=C(C)C4=CC(=O)CC[C@@H]4[C@H]3CC[C@@]21C [Nomegestrol acetate],fold induction at 100 µM,[2]; [7],3.5
CN(C)CCOC1=Cc2ccccc2Sc2ccc(Cl)cc21 [Zotepine],fold induction at 100 µM,[3]; [8],4.3
CN1CCc2cccc3c2[C@H]1Cc1ccc(O)c(O)c1-3.CN1CCc2cccc3c2[C@H]1Cc1ccc(O)c(O)c1-3.Cl.Cl.O [R(−)Apomorphine hydrochloride hemihydrate],Fold Induction of luciferase activity,[2]; [6],3.4 fold
O=C(CCCCCCC(=O)Nc1ccccc1)NO [Vorinostat],fold induction at 100 µM,[5],10.2
same,fold induction at 100 µM,[1]; [10],6.4
same,fold induction at 100 µM,[2]; [7],3.6
same,fold induction at 100 µM,[4]; [9],3
O=C(Nc1ccc([N+](=O)[O-])cc1Cl)c1cc(Cl)ccc1O [Niclosamide],fold induction at 100 µM,[2]; [7],3
C[C@]12CC[C@@H]3c4ccc(O)cc4CC[C@H]3[C@@H]1C[C@@H](O)[C@@H]2O [Estriol],fold induction at 100 µM,[5],4.3
CNCCCC1c2ccccc2C=Cc2ccccc21 [Protriptyline hydrochloride],fold induction at 100 µM,[2]; [7],5
C#C[C@]1(O)CC[C@H]2[C@@H]3CCC4=Cc5oncc5C[C@]4(C)[C@H]3CC[C@@]21C [Danazol],fold induction at 100 µM,[2]; [7],3.7
Meclocycline sulfosalicylate,Fold Induction of luciferase activity,[2]; [6],3.4 fold
O=C(Nc1ccccc1)OCC(CN1CCCCC1)OC(=O)Nc1ccccc1 (stereo not shown) [Diperodon hydrochloride],fold induction at 100 µM,[1]; [10],3
Fc1ccc(C(c2ccc(F)cc2)N2CCN(C/C=C/c3ccccc3)CC2)cc1 [Flunarizine dihydrochloride],fold induction at 100 µM,[2]; [7],4.7
"CC[C@@]1(O)C(=O)OCc2c1cc1n(c2=O)Cc2cc3ccccc3nc2-1 [Camptothecine (S, +)]",Fold Induction of luciferase activity,[2]; [6],5.7 fold
O=C(COc1ccccc1)Nc1nc2nc[nH]c2c(=O)[nH]1 [N2-Phenoxyacetyl guanine],fold induction at 500 µM,"[3]; Homo sapiens, HEK293, 24 h, xpt-G17 construct, 500 μM concentration, FIG. 1c, 1d, read-out: fold induction of luciferase activity by guanine analogs (N2 compounds)",1300
NC(=NCc1ccccc1)NC(=O)c1nc(Cl)c(N)nc1N [Benzamil hydrochloride],fold induction at 100 µM,[2]; [7],3
CC(=O)[C@H]1CC[C@H]2[C@@H]3CCC4=CC(=O)CC[C@]4(C)[C@H]3CC[C@]12C [Progesterone],fold induction at 100 µM,[2]; [7],6
same,fold induction at 100 µM,[3]; [8],12
same,response of guanine riboswitch xpt-G17 to compound (FIG. 1e),[3]; preliminary screen,responded
[H]/N=C(/N)NS(=O)(=O)c1ccc(N)cc1 [Sulfaguanidine],fold induction at 100 µM,[4]; [9],13.9
CNc1ncnc2c1ncn2[C@@H]1O[C@H](CO)[C@@H](O)[C@H]1O [N6-methyladenosine],fold induction at 100 µM,[2]; [7],20.8
same,fold induction at 100 µM,[3]; [8],30.7
same,response of guanine riboswitch xpt-G17 to compound (FIG. 1e),[3]; preliminary screen,responded
same,fold induction at 100 µM,[4]; [9],10.7
CCC(=O)O[C@H]1CC[C@H]2[C@@H]3CCC4=CC(=O)CC[C@]4(C)[C@H]3CC[C@]12C [Testosterone propionate],fold induction at 100 µM,[2]; [9],8.8
same,fold induction at 100 µM,[3]; [8],29
same,response of guanine riboswitch xpt-G17 to compound (FIG. 1e),[3]; preliminary screen,responded
CC(C)COCC(CN(Cc1ccccc1)c1ccccc1)N1CCCC1 (stereo not shown) [Bepridil hydrochloride],fold induction at 100 µM,[2]; [7],4.4
Nc1ncnc2c1ncn2[C@@H]1O[C@H](COP(=O)(O)O)[C@@H](O)[C@H]1O.O [Adenosine 5′-monophosphate monohydrate],fold induction at 100 µM,[2]; [9],9.4
same,fold induction at 100 µM,[3]; [8],28.4
same,response of guanine riboswitch xpt-G17 to compound (FIG. 1e),[3]; preliminary screen,responded
same,fold induction at 100 µM,[4]; [9],5.9
CN/C(=N/CCSCc1nc[nH]c1C)NC#N [Cimetidine],fold induction at 100 µM,[1]; [10],3
CC(=O)O[C@]1(C(C)=O)CC[C@H]2[C@@H]3C=C(Cl)C4=CC(=O)CC[C@]4(C)[C@H]3CC[C@@]21C [Chlormadinone acetate],fold induction at 100 µM,[2]; [7],26.1
same,fold induction at 100 µM,[3]; [8],10.3
same,response of guanine riboswitch xpt-G17 to compound (FIG. 1e),[3]; preliminary screen,responded
same,fold induction at 100 µM,[4]; [9],10.4
CN1CCCC(n2nc(Cc3ccc(Cl)cc3)c3ccccc3c2=O)CC1 (stereo not shown) [Azelastine hydrochloride],fold induction at 100 µM,"[4]; HEK293, ydhl-G8 riboswitch, Prestwick library compounds at 100 μM, HEK 293, read-out: Fold Induction of luciferase activity",3
Clc1ccc(C(Cn2ccnc2)OCc2csc3c(Cl)cccc23)c(Cl)c1 (stereo not shown) [Sertaconazole Nitrate],fold induction at 100 µM,[2]; [7],6.5
Clc1cc(Cl)c(OCC#CI)cc1Cl [Haloprogin],fold induction at 100 µM,[2]; [7],5.9
same,fold induction at 100 µM,[3]; [8],5.1
Tyloxapol,Fold Induction of luciferase activity,[3]; 100 µM,16.2 fold
same,response of guanine riboswitch xpt-G17 to compound (FIG. 1e),[3]; preliminary screen,responded
COC(=O)Nc1nc2ccc(SC(C)C)cc2[nH]1 [Methiazole],Fold Induction of luciferase activity,[5],3.3 fold
same,Fold Induction of luciferase activity,[1]; [10],3.8 fold
C#C[C@]1(O)CC[C@H]2[C@@H]3CCC4=CCCC[C@@H]4[C@H]3CC[C@@]21C [Lynestrenol],fold induction at 100 µM,[2]; [7],3.8
COc1ccc2[nH]c([S+]([O-])Cc3ncc(C)c(OC)c3C)nc2n1 (stereo not shown) [Tenatoprazole],fold induction at 100 µM,[3]; [8],3.2
CCCCNc1ccc(C(=O)OCCN(C)C)cc1 [Tetracaine hydrochloride],fold induction at 100 µM,[4]; [9],3.6
C/C=C(/C(=C/C)c1ccc(O)cc1)c1ccc(O)cc1 [Dienestrol],fold induction at 100 µM,[1]; [10],4.3
CC(C)(C)NC[C@H](O)COc1ccccc1C1CCCC1 [Penbutolol sulfate],fold induction at 100 µM,[5],3.3
O=C(OCCOCCO)c1ccccc1Nc1cccc(C(F)(F)F)c1 [Etofenamate],fold induction at 100 µM,[2]; [7],5.1
same,fold induction at 100 µM,[3]; [8],7.5
same,fold induction at 100 µM,[4]; [9],4.8
C[C@@H]1[C@H](O)[C@@H](C)/C=C/C=C/C=C/C=C/C=C/C=C/C=C/[C@H](O[C@@H]2O[C@H](C)[C@@H](O)[C@H](N)[C@@H]2O)C[C@@H]2O[C@](O)(C[C@@H](O)C[C@@H](O)[C@H](O)CC[C@@H](O)C[C@@H](O)CC(=O)O[C@H]1C)C[C@H](O)[C@H]2C(=O)O [Amphotericin B],Fold Induction of luciferase activity,[5],3.8 fold
same,Fold Induction of luciferase activity,[2]; [6],10.7 fold
same,response of guanine riboswitch xpt-G17 to compound (FIG. 1e),[3]; preliminary screen,responded
same,Fold Induction of luciferase activity,"[3]; xpt-G17 riboswitch, Prestwick library compounds at 100 μM, HEK 293, preliminary screen",21.5 fold
same,Fold Induction of luciferase activity,"[4]; ydhl-G8 riboswitch, Prestwick library compounds at 100 μM, HEK 293",6.5 fold
Nc1nc2nc[nH]c2c(=S)[nH]1 [Thioguanine],response of guanine riboswitch xpt-G17 to compound (FIG. 1e),[3]; preliminary screen,responded

# — patent publication US11371077B2, “High throughput cell-based screening for aptamers” (MeiraGTx UK II Limited, priority 2016, dated 2022)
